Assay results published in patent US5130300A, “Method for enhancing growth of mammary parenchyma” (Monsanto Company, priority 1987, dated 1992).

Legend:
[1] = tested on: Quarter-Udders in Pregnant Beef Cattle; test: Intramammary infusion of prostaglandin E1 or E2, quarter-udder weights and DNA (Examples 25-28); format: in vivo, cross-bred beef cows; conditions: for DNA, % Increase, (A-B)/B / DNA, Mean Increase (A-B) / Dry Weight, % Increase, (A-B)/B / Dry Weight, Mean Increase (A-B) / Wet Weight, % Increase, (A-B)/B / Wet Weight, Mean Increase (A-B) / Dry Fat-Free Weight, % Increase, (A-B)/B / Dry Fat-Free Weight, Mean Increase (A-B): B = excipient only
Protocol: 24 pregnant, non-lactating, cross-bred beef cows in their last 45-105 days of gestation were housed in a free-stall facility, fed a ration of alfalfa hay and pelleted concentrate, and administered 5 ml of an excepient (MCT-Oil, a Mead Johnson Corp. medium chain triglyceride which is a lipid fraction of coconut oil consisting primarily of triglycerides of C8 and C10 fatty acids as follows: C8 -67%; C10 -23%; <C8 -6%; >C10 -4%) into each quarter-udder by intramammary infusion through the streak cannal on days 1, 3, 5, 7 and 9 of this study. The 48 front and rear udder halves were randomly divided into 4 groups, with one quarter of each udder half treated and its laterally opposite quarter-udder used as a control. In the treatment infusions, the excipient contained Prostaglandin (PG) E1 or E2 from Sigma Chemical Co., St. Louis, Mo. (Catalog Nos. 86F-0406 and -0404). The amounts of PG in each infusion were: Group 1-87.5 micrograms of E2; Group 2-875 micrograms of E2; Group 3-87.5 micrograms of E1; Group 4-875 micrograms of E1. Animals were prepared and infused as in Examples 23-24; the effects were determined as in Examples 1-2. Results for Groups 1-4 are in Tables 15-18, respectively.

[2] = tested on: Quarter-Udders in Pregnant Beef Cows; test: Intramammary infusion of hEGF or mEGF, quarter-udder weights and DNA (Examples 1-2); format: in vivo, cross-bred beef cows; conditions: 25 micrograms per infusion, days 1,3,5,7,9, Freund's emulsion
Protocol: 12 pregnant, non-lactating, cross-bred beef cows within their last 40-80 days of gestation were housed in a free-stall facility, fed a ration of alfalfa hay and pelleted concentrate, and administered 10 ml of an excipient (Freund's Incomplete Adjuvant emulsified with an equal volume of 0.9% sterile saline) into each quarter-udder by intramammary infusion through the streak canal on days 1, 3, 5, 7 and 9 of this study. Infusions were carried out using a 3.2 centimeter long, approximately 12 gauge, blunt-tipped plastic teat infusion cannula obtained from Jorgensen Laboratories, Loveland, Colo. Because front and rear udder halves are not of equal size, treatment vs. control comparisons were made between laterally opposite quarters, i.e., front right vs. front left and rear right vs. rear left. Treatments were randomly assigned to right or left udder-halves, with the contralateral half serving as its control. […] (the other 6 animals).
Prior to treatment, each animal was teatdipped for 3 consecutive days and each teat was pre-cleaned with 70% ethanol in water on the day of treatment. On day 14 the cows were sacrificed and their mammary glands excised. Each udder (milked out if necessary) was skinned, divided along the median suspensory ligament and then into front right, front left, rear right and rear left udder quarters. Each quarter-udder was ground, a representative 200 gm sample was homogenized with 4 times its volume of water, and the total homogenate volume of each was measured.
To determine dry weight of each quarter-udder, three 10 ml aliquots of a 1:5 diluted homogenate were placed in pre-weighed pans, dried overnight at 60° and then dried and weighed to a consistent value.
To determine dry fat-free tissue weight of each quarter-udder, three 5 ml aliquots of the undiluted homogenate were extracted by the method of Anderson, 41 J. Anim. Sci. 118 (1975) except that samples were placed in pre-weighed 25×150 mm glass centrifuge tubes and extracted overnight with 10 ml ethanol:ether (3:1), then centrifuged (5 min at 500 rpm) and the supernatant aspirated; an additional 10 ml aliquot of ethanol:ether was added for a second extraction; and the sample was dried under nitrogen until a consistent value was obtained.
DNA in each quarter-udder was determined by the method of Burton, 12B Methods in Enzymol. 163-66 (1968) using an assay solution of 15% trichloroacetic acid (TCA) in 2N HCl. In these determinations, aliquots of gland homogenate were diluted 1:5 with water and rehomogenized. Using triplicate 0.25 ml or 0.5 ml aliquots of these homogenates, each aliquot was mixed with 2 ml of the assay solution. After 30 min, the samples were centrifuged for 10 min at 3000 rpm and the resulting pellets were washed with 2 ml of a 10% solution of TCA in distilled water. After recentrifugation, the resulting pellets were disrupted in 2 ml of 0.5N perchloric acid and heated for 30 min at 70° to extract DNA. Samples were centrifuged and 1 ml of each resulting supernatant was placed in a 12×75 mm tube. After addition of 2 ml of a solution of 1.5 g diphenylamine and 1.5 ml H2 SO4 in 100 ml glacial acetic acid (and 0.1 ml of 1.6% aqueous acetaldehyde per 20 ml reagent just prior to use), the samples were vortexed and incubated overnight at 27°. Calf thymus DNA was the standard.

[3] = total of 0.4375 milligrams (87.5 micrograms per infusion) in MCT-Oil
[4] = total of 0.4375 milligrams in MCT-Oil
[5] = total of 4.375 milligrams (875 micrograms per infusion) in MCT-Oil
[6] = total of 4.375 milligrams in MCT-Oil
[7] = B = opposite quarter, excipient only

Compound	DNA, Treatment Mean [1, 3]	Dry Fat-Free Weight, Treatment Mean [1, 3]	Dry Weight, Treatment Mean [1, 3]	Wet Weight, Treatment Mean [1, 3]	DNA, % Increase, (A-B)/B [1, 4]	DNA, Mean Increase (A-B) [1, 4]	Dry Weight, % Increase, (A-B)/B [1, 4]	Dry Weight, Mean Increase (A-B) [1, 4]	Wet Weight, % Increase, (A-B)/B [1, 4]	Wet Weight, Mean Increase (A-B) [1, 4]	DNA, Treatment Mean [1, 5]	Dry Fat-Free Weight, Treatment Mean [1, 5]	Dry Weight, Treatment Mean [1, 5]	Wet Weight, Treatment Mean [1, 5]	DNA, % Increase, (A-B)/B [1, 6]	DNA, Mean Increase (A-B) [1, 6]	Dry Fat-Free Weight, % Increase, (A-B)/B [1, 6]	Dry Fat-Free Weight, Mean Increase (A-B) [1, 6]	Dry Weight, % Increase, (A-B)/B [1, 6]	Dry Weight, Mean Increase (A-B) [1, 6]	other results
CCCCC[C@H](O)/C=C/[C@H]1[C@H](O)CC(=O)[C@@H]1CCCCCCC(=O)O [Prostaglandin E1, [11α,13E,15S]-11,15-Dihydroxy-9-oxoprost-13-en-1-oic acid]	2881 mg	180.9 g	259.3 g	972.5 g	26%	597 mg	23.0%	48.7 g	25.0%	194.5 g	4218 mg	247.7 g	379.6 g	1435.5 g	51.1%	1426 mg	31.0%	58.7 g	41.5%	111.4 g	Wet Weight, % Increase, (A-B)/B [1, 6]: 51.2%; Wet Weight, Mean Increase (A-B) [1, 6]: 486.2 g
CCCCC[C@H](O)/C=C/[C@H]1[C@H](O)CC(=O)[C@@H]1C/C=C\CCCC(=O)O [Prostaglandin E2, [5Z,11α,13E,15S]-11,15-Dihydroxy-9-oxoprosta-5,13-dien-1-oic acid]	5203 mg	351.8 g	525.5 g	1966.9 g	10.1%	479 mg	8.3%	40.6 g	13.3%	231.4 g	3397 mg	194.5 g	312.7 g	1030.8 g	44.6%	1049 mg	34.8%	50.2 g	42.8%	93.7 g	Dry Fat-Free Weight, % Increase, (A-B)/B [1, 4]: 18.1%; Dry Fat-Free Weight, Mean Increase (A-B) [1, 4]: 54.0 g; Wet Weight, % Increase, (A-B)/B [1, 6]: 38.9%; Wet Weight, Mean Increase (A-B) [1, 6]: 288.8 g
mEGF: mouse EGF, culture-grade, from mouse submaxillary glands, Collaborative Research Corp. Catalog No. 40001 (NSYPGCPSSYDGYCLNGGVCMHIESLDSYTCNCVIGYSGDRCQTRDLRWWELR; not fully specified; Epidermal growth factor; UniProt P01132 977-1029, looked up)	–	–	–	–	–	–	–	–	–	–	–	–	–	–	–	–	–	–	–	–	DNA, % Increase, (A-B)/B [2, 7]: 13.8%; DNA, Mean Increase (A-B) [2, 7]: 110.2 mg; Dry Fat-Free Weight, % Increase, (A-B)/B [2, 7]: 7.9%; Dry Fat-Free Weight, Mean Increase (A-B) [2, 7]: 5.0 g; Dry Weight, % Increase, (A-B)/B [2, 7]: 1.6%; Dry Weight, Mean Increase (A-B) [2, 7]: 2.3 g; Wet Weight, % Increase, (A-B)/B [2, 7]: 4.4%; Wet Weight, Mean Increase (A-B) [2, 7]: 17.6 g; DNA, Treatment Mean ([2]; day 14): 905.1 mg; Dry Fat-Free Weight, Treatment Mean ([2]; day 14): 69.6 g; Dry Weight, Treatment Mean ([2]; day 14): 150.2 g; Wet Weight, Treatment Mean ([2]; day 14): 419.6 g; DNA, Avg % Increase/Animal ([2]; vs excipient-only quarter): 12.0%; Dry Fat-Free Weight, Avg % Increase/Animal ([2]; vs excipient-only quarter): 5.2%; Dry Weight, Avg % Increase/Animal ([2]; vs excipient-only quarter): 2.1%; Wet Weight, Avg % Increase/Animal ([2]; vs excipient-only quarter): 1.8%
